Laboratory results reported in PMC6266276 (Viruses, 2018).
Several values for one entry are separate records, joined by “and”; a condition that tells them apart may be missing. Equal entries are not always repeated. Entries after “also recorded” stand apart in the source; their conditions may differ. Where two headings read alike, the source gives them in different places.

Key:
[1] = test system: phosphorylated eIF4E (p-eIF4E); format: cell-based
[2] = test system: vesicular stomatitis virus (VSV); format: cell-based, vesicular stomatitis virus (VSV) strain Indiana
[3] = test system: Newcastle disease virus (NDV); experiment: microbe, parasite or virus in culture; format: cell-based, Newcastle disease virus (NDV) strain NA-1; conditions: for IC50: read-out: IC50, half maximal inhibitory concentration
[4] = test system: Newcastle disease virus (NDV); set-up: species or system Newcastle disease virus (NDV) strain NA-1; conditions: in vivo
[5] = test system: Newcastle disease virus (NDV); set-up: species or system Newcastle disease virus (NDV) strain NA-1; conditions: in vivo, 0.2 mg/kg
[6] = test system: porcine epidemic diarrhea virus (PEDV); experiment: microbe, parasite or virus in culture; format: cell-based, porcine epidemic diarrhea virus (PEDV) strain CV777; conditions: for IC50: Porcine epidemic diarrhea virus, Vero, read-out: IC50, half maximal inhibitory concentration
[7] = test system: porcine epidemic diarrhea virus (PEDV); set-up: species or system porcine epidemic diarrhea virus (PEDV) strain CV777; conditions: pig, in vivo
[8] = test system: avian influenza virus (AIV); set-up: species or system avian influenza virus (AIV) strain H9-WD; conditions: in vivo
[9] = test system: herpes simplex virus type 1 (HSV-1); experiment: microbe, parasite or virus in culture; format: cell-based, herpes simplex virus type 1 (HSV-1) strain F
pseudorabies virus (PRV) = format: cell-based, pseudorabies virus (PRV) strain Fa
[10] = pig, in vivo
[11] = chicken, in vivo
[12] = mouse, in vivo
chikungunya virus = conditions: HHT at 1 µM ref 38; cited from earlier work
[13] = test system: mouse hepatitis coronavirus (MHV); conditions: HHT at 125 nM ref 53; cited from earlier work
hepatitis B virus (HBV) = conditions: HHT at concentrations below 2 µM ref 52; cited from earlier work
[14] = test system: bovine viral diarrhea virus (BVDV); conditions: HHT at concentrations below 2 µM ref 52; cited from earlier work
acute myeloid leukemia = conditions: mice, HHT 1.0 mg/kg ref 26; cited from earlier work
in vitro [15] = conditions: human
in vitro [16] = conditions: African green monkey
VSV = conditions: cited from earlier work

Nc1ncnc2n[nH]c(Nc3ccc(F)cc3)c12 [CGP57380]
cellular total eIF4E level [1]: without an effect on total eIF4E protein level
p-eIF4E levels [1]: prevent the phosphorylation of eIF4E

COC(=O)C[C@](O)(CCCC(C)(C)O)C(=O)O[C@@H]1C(OC)=C[C@]23CCCN2CCc2cc4c(cc2[C@H]13)OCO4 [HHT, homoharringtonine]
VSV-G levels, time-of-addition [2]: strong reductions
inhibitory effect against viral infection, pre-treatment [2]: minimal inhibitory effect
reduction of the viral yields, co-/post-treatment [2]: complete reduction
reduction of viral yields [2]: 1.5 orders of magnitude
viral protein G levels of VSV (VSV-G) [2]: strong reduction
viral reduction [2]: 6.5 orders of magnitude and 5 orders of magnitude
viral yields [2]: dramatically reduced
NDV-NP level [3]: strong reduction
SI, Selectivity index = CC50/IC50 [3]: 107
concentration that completely inhibited infection [3]: 100 nM
morphology and number of HeLa cells compared to mock infected sample [3]: no difference in morphology and number
production of recombinant NDV expressing GFP [3]: greatly reduced
IC90 ([3]; avian paramyxovirus 1, HeLa, 24 h): 0.04 µM
IC50 ([3]; avian paramyxovirus 1, HeLa): 0.018 µM
effect on viral infection in chicken embryos [4]: slight effect; also recorded: completely inhibited viral infection
reduction of HAU values [4]: one and three
mRNA level of NDV-NP in blood [5]: significantly decreased
mRNA level of NDV-NP in the liver and lung [5]: significantly decreased
pathological change in tissues and symptoms [5]: did not exhibit a pathological change in tissues or symptoms; also recorded: survived without pathogenic changes in tissues and symptoms
PEDV-N levels, time-of-addition [6]: strong reductions
PEDV-N protein and mRNA levels [6]: strong reduction
SI, Selectivity index = CC50/IC50 [6]: 50
concentration that completely inhibited infection [6]: 500 nM
infection rate, time-of-addition [6]: less than 30%
reduction of viral yields [6]: 1.9 orders of magnitude
viral yields [6]: completely suppressed
IC50 [6]: 0.112 µM
inhibitory activity and death [7]: optimal inhibitory activity without death
pathological change in tissues and symptoms ([7]; 0.05 mg/kg): survived without pathogenic changes in tissues and symptoms
mRNA levels of PEDV-N in blood ([7]; 0.05 mg/kg/day): greatly decreaseed
mRNA levels of PEDV-N in the intestine ([7]; 0.05 mg/kg/day): greatly decreaseed
lung inflammation [8]: decreased local inflammatory reaction but aggravated overall inflammation; also recorded: moderately attenuated inflammation
number of AIV positive cells in lung [8]: No obvious reduction
HSV-ICP8 level [9]: strong reduction
SI, Selectivity index = CC50/IC50 [9]: 40
viral replication [9]: strong reduction in viral replication
IC50 ([9]; Human alphaherpesvirus 1, Vero, read-out: IC50, half maximal inhibitory concentration): 0.139 µM
PRV-gC level (pseudorabies virus (PRV)): strong reduction
viral replication (pseudorabies virus (PRV)): strong reduction in viral replication
accumulation of Mcl-1 [1]: gradually reduced
cellular total eIF4E level [1]: unaffected
p-eIF4E induced by ectopic expression of wild-type eIF4E [1]: decreased the accumulation of p-eIF4E
p-eIF4E levels [1]: gradually reduced
p-eIF4E levels induced by viral infection, in parallel with viral protein [1]: gradually reduced
cell viability (HEK293T cells): no measurable decrease in cell viability
cell viability (HeLa cells): No measurable decrease in cell viability
cell viability (Vero cells): No measurable decrease in cell viability
50% toxicity dose [10]: 0.2 mg/kg
animals for which side effects were fatal ([10]; 0.2 mg/kg): about 50%
50% toxicity dose [11]: 0.4 mg/kg
inflammatory reaction in lung [12]: No obvious inflammatory reaction
inhibition of viral yield (chikungunya virus): 2–3 orders of magnitude
inhibition of MHV in vitro [13]: high-magnitude inhibition
antiviral efficacy on HBV DNA levels (hepatitis B virus (HBV)): no protective effects
antiviral efficacy on BVDV infection [14]: no protective effects
acute myeloid leukemia in vivo (acute myeloid leukemia): completely eradicate acute myeloid leukemia
CC50 (in vitro [15]): 1.92 µM
CC50 (in vitro [16]): 5.58 µM

O=c1c(O)c(-c2ccc(O)c(O)c2)oc2cc(O)cc(O)c12 [Quercetin]
SI, Selectivity index = CC50/IC50 [6]: >145
IC50 [6]: 6.9 µM
CC50 (in vitro [16]): > 1000 µM

NC(=O)c1ncn([C@@H]2O[C@H](CO)[C@@H](O)[C@H]2O)n1 [Ribavirin]
concentrations at which antiviral activity was displayed [2]: over 100 µM
SI, Selectivity index = CC50/IC50 [3]: 64
IC50 ([3]; avian paramyxovirus 1, HeLa): 44.2 µM
inhibition of VSV titer in cells (VSV): 2.5 orders of magnitude
CC50 (in vitro [15]): 2820 µM
